Test: Solubility in an organic solvent (toluene)
Assay type: physicochemical
Conditions: for Solubility: grams of PXX compound dissolving in 10 grams of toluene
Method: The melting point and the mesophase transition temperature of the PXX compound can be determined by TG-DTA (thermogravimetry/differential thermal analysis) and DSC (differential scanning calorimetry). Further, solubility in an organic solvent was measured. […] In Table 1, the mesophase transition temperature is denoted as “transition temperature”. […]

| SMILES | Solubility | Amount dissolved in toluene (in 100 grams of toluene) |
| --- | --- | --- |
| CC(C)CCc1ccc(-c2ccc3oc4ccc5c(-c6ccc(CCC(C)C)cc6)ccc6oc7ccc2c3c7-c4c65)cc1 [Working Example 2B] | 1.3 g | – |
| CC(C)Cc1ccc(-c2ccc3oc4ccc5c(-c6ccc(CC(C)C)cc6)ccc6oc7ccc2c3c7-c4c65)cc1 [Working Example 2A] | 1.5 g | – |
| CC(C)c1ccc(-c2ccc3oc4ccc5c(-c6ccc(C(C)C)cc6)ccc6oc7ccc2c3c7-c4c65)cc1 [Comparative Example 2D] | 0.37 g | 0.37 grams |

Source: US20140291659A1, “DIOXAANTHANTHRENE COMPOUND, LAMINATED STRUCTURE AND FORMATION METHOD THEREOF, AND ELECTRONIC DEVICE AND MANUFACTURING METHOD THEREOF” (Sony Corporation, priority 2011, published 2014)
